Key:
Crassostrea virginica = experiment: Inhibitory activity against KDN-sialidase from Crassostrea virginica at a concentration of 1 mM
[1] = Inhibitory activity against Vibrio cholerae sialidase
[2] = Inhibitory activity against influenza virus A(N9) sialidase
[3] = system: Salmonella enterica subsp. enterica serovar Typhimurium; experiment: Inhibitory activity sialidase from Salmonella Typhimurium at a concentration of 0.1 mM
Clostridium perfringens = experiment: Inhibitory activity against sialidase from Clostridium perfringens at a concentration of 0.1 mM
influenza virus a = experiment: Inhibitory activity against influenza virus A(N9) sialidase at a concentration of 0.1 mM
Vibrio cholerae = experiment: Inhibitory activity against Vibrio cholerae sialidase at a concentration of 0.1 mM

Compound	inhibition (Crassostrea virginica)	Ki [1]	Ki [2]	inhibition [3]	inhibition (Clostridium perfringens)	inhibition (influenza virus a)	inhibition (Vibrio cholerae)
CC(C)OC1OC(C(=O)O)=CC(O)C1O (stereo unspecified)	6%	–	–	–	–	–	–
CC(=O)N[C@H]1[C@H]([C@H](O)[C@H](O)CO)OC(C(=O)O)=C[C@@H]1O [NEU5AC2EN]	20%	3.4 µM	1.3 µM	–	–	–	–
O=C(O)C1=CC(O)C(O)C([C@H](O)[C@H](O)CO)O1 (stereo partly specified)	95%	–	–	–	–	–	–
CC(=O)NC1C(O)C=C(C(=O)O)OC1OC(C)C (stereo unspecified)	–	120 µM	2.7 µM	24%	24%	100%	25%

— ChEMBL document CHEMBL1131804, “Synthesis of delta4-beta-D-glucopyranosiduronic acids as mimetics of 2,3-unsaturated sialic acids for sialidase inhibition” (Bioorg Med Chem Lett, 1999)
